From US20240368552A1, “PRE-EPICARDIAL CELLS AND USES THEREOF” (The General Hospital Corporation, priority 2021, published 2024)

Legend:
Assay type in all cases: cell-based, human
[1] = test system: ventricular-CMs; assay: IGF signaling in PEC-induced ventricular-CM proliferation (IGF1R inhibition assay, IGF2 dose-response)
[2] = test system: PECs; assay: Stimulation of epithelial-mesenchymal transition in PECs; details: for PECs CD90 positive: 6 days treatment, flow cytometry; for PEC phenotype (ZO1, WT1, morphology): immunofluorescence, extended culture / 6 days
Procedure: Stimulation of epithelial-mesenchymal transition in PECs. Day 7 PECs were seeded at 100,000 cells/well on 24-well-plate pre-coated with 0.1% gelatin, and allowed to attach overnight in basal medium (BM) consisted of DMEM/F12 supplemented with […] of Albumax (Gibco, Grand Island, NY), 1×ITS (Gibco, Grand Island, NY), 60 μg/ml ascorbic acid (Sigma Aldrich, St. Louis, MO). 1 μM of ROCK inhibitor Y27632 (Tocris Bioscience, Bristol, UK) was added to facilitate PEC attachment for 24 h. Then, PECs were expanded to full confluency in the BM with 2 μM SB431542 (Stemgent, San Diego, CA) but without AlbuMAX II (Gibco, Grand Island, NY), for 3-4 days. EMT were initiated by adding 5 ng/ml TGFβ (R&D system, Minneapolis, MN) for the initial 3 days and 10 ng/ml bFGF (PeproTech, Rocky Hill, NJ) for the subsequent 3 days or just bFGF alone, up to 6 days. Controls were epicardial cells in basal medium or with addition of 2 μM SB431542 (Stemgent, San Diego, CA).
(§1) Quantitative PCR. Cells were lysed with RT buffer and total RNA was purified using RNeasy® Plus Mini kit (Qiagen, Hilden, Germany) which was reverse transcribed to cDNA using Superscript IV VILO Master Mix (Gibco, Grand Island, NY) and ran on Bio-rad T100™ Thermal Cycler according to manufacturer's protocol. Quantitative PCR was performed on StepOnePlus Real-time PCR system (Applied Biosystems, Foster City, CA) after mixing cDNA with Taqman Gene Expression Master Mix (Cat #: 4369016) and gene Taqman probe (Applied Biosystems, Foster City, CA) which can be found in Table 1. All gene expressions were normalized to housekeeping gene beta-actin and presented as log 2fold change (delta-delta CT).
Flow cytometry. Cells were dissociated using trypsin, pelleted by centrifugation at 300 g for 5 min, and fixed with Fixation/Permeabilization Solution Kit according to manufacturer's protocol (BD Biosciences, San Diego, CA). Cells were washed with 2 times of 10% BD Perm/Wash Buffer (BD Biosciences, San Diego, CA) to remove fixative prior to staining. Samples were incubated with primary antibody diluted in BD Perm/Wash Buffer at 4° C. for 45 min. To remove excessive primary antibody, samples were spun at 250 g for 5 min and washed once with Perm/Wash buffer prior to labelling with Alexa Fluor 488 secondary antibody (Molecular Probes Eugene, OR) at 1:500 for 30 min. All samples were washed once with BD Perm/Wash Buffer prior to analysis with BD Accuri, BD FACS LSR Flow Cytometer (BD Biosciences, San Diego, CA) or NovoCyte Flow Cytometer (ACEA Biosciences, San Diego, CA). All flow cytometric analyses were performed using FlowJo 10.5.0 software.
Immunofluorescence labelling and microscopy (cells, spheres, aggregates). Cultured cells were fixed with cold methanol at 4° C. for 15 min, and then washed with PBS. CM-spheres, PEC-Spheres, and cardiac aggregates were fixed overnight with 4% paraformaldehyde, embedded in Histogel™ (Thermo Scientific, Kalamazoo, MI), dehydrated, and embedded in paraffin. Sections were cut at 5 μm, deparaffinized, and treated with a heat-mediated antigen retrieval technique that included a 20-min boilin 0.01 M citrate buffer (pH 7.0). Both cells and histological sections were labelled with primary antibodies (Table 1) overnight at 4° C. Donkey anti rabbit AlexaFluor 488 and donkey anti-mouse AlexaFluor 546 and 647 (Molecular Probes Eugene, OR) were used as secondary antibodies at 1:500 and nuclei were counterstained with DAPI (Sigma Aldrich, St. Louis, MO). All labelled cells were visualized using Nikon Eclipse Ti fluorescence microscope (Nikon Instruments, Melville, NY), and processed with NIS element imaging software or ImageJ.

[3] = test system: hiPSCs (BJR-iPS cells); assay: Lateral plate mesoderm (LPM) induction from hiPSCs with CHIR, flow cytometry and RT-PCR
Procedure: HiPSC culture, maintenance and differentiation. Human BJR-iPS cells (hiPSCs) were obtained from Harvard Stem Cell Institute, and maintained in MTeSR medium (STEMCELL Technologies). hiPSCs were passaged with ReleaSR (STEMCELL Technologies, Cambridge, MA) and plated at 1:20 ratio every 7 days onto […] pre-coated with growth factor reduced (GFR)-Matrigel (Corning, Tewksbury, MA). Briefly, hiPSCs were seeded at 200,000 cells/cm^2 onto a GFR-Matrigel-coated plate and maintained in MTeSR medium for 4-5 days. To generate the lateral plate mesoderm (LPM), the cells were treated with 12 μM Stemolecule™ CHIR99021 (Stemgent, San Diego, CA) in differentiation basal medium consisting of RPMI medium supplemented with B27 without insulin (Gibco, Grand Island, NY) (RPMI-INS,) for 48 h. Then, the medium was replaced with RPMI-INS for 24 h. Next, the culture was incubated with 5 μM of Stemolecule™ Wnt inhibitor IWP-4 (Stemgent, San Diego, CA) in RPMI-INS for 48 hr before switching it back to RPMI-INS, for additional 48 hr. After that, the medium was changed to RPMI medium supplemented with insulin-containing B27, and refreshed every 2 days for long term maintenance. For PEC differentiation, LPM cells at day 3 were treated with RPMI-INS supplemented 50 ng/ml bone morphogenic protein (BMP) 4 (PeproTech, Rocky Hill, NJ), 5 ng/ml vascular endothelial growth factor (VEGF; PeproTech, Rocky Hill, NJ) and 4 μM retinoic acid (RA; Stemgent, San Diego, CA) in RPMI-INS and changed every 2 days for 96 hr. PECs were dissociated using collagenase I (Sigma Aldrich, St. Louis, MO) and 1×TrypLE Express Enzyme (Gibco, Grand Island, NY), and maintained in complete PEC medium (PECM) consisted of DMEM/F12 supplemented with 1×insulin-selenium-transferrin (ITS; Gibco, Grand Island, NY), 5 ng/ml VEGF (PeproTech, Rocky Hill, NJ), 10 μM retinol, 4 μM RA (Stemgent, San Diego, CA) and 60 μg/ml ascorbic acid (Sigma). For plating, 1 μM of ROCK inhibitor Y-27632 dihydrochloride (Tocris Bioscience, Bristol, UK) was added for 24 h to facilitate cell attachment, after which medium was switched to PECM. For PEC maintenance, differentiated PEC were passaged and seeded at 10,000/well of 24 well-plate and maintained using SB medium consisted of DMEM/F12 supplemented with 0.4 mg/ml of Albumax (Gibco, Grand Island, NY), 1×ITS (Gibco, Grand Island, NY), 60 μg/ml ascorbic acid (Sigma Aldrich, St. Louis, MO), with 2 μM TGFβ inhibitor SB431542 (Tocris Bioscience, Bristol, UK). […]
Quantitative PCR. […] Quantitative PCR was performed on StepOnePlus Real-time PCR system (Applied Biosystems, Foster City, CA) after mixing cDNA with Taqman Gene Expression Master Mix (Cat #: 4369016) and gene Taqman probe (Applied Biosystems, Foster City, CA) which can be found in Table 1. […]

[4] = test system: IGF2; assay: Inhibition of RA signaling in PEC in transwell (IGF2 qPCR); details: 5 μM, 6 days, vs control without BMS
Procedure: as §1
Inhibition of RA signaling in PEC in Transwell: PECs were seeded at 2.5×10^5 cells/well in 24 well-plate while 2.5×10^5 cells VM were cultured in the transwell insert. Both cells were cultured using PECM:RPMI-INS medium, with […] (5 μM) only present in lower compartment with PECs, for 6 days. IGF2 RNA was harvested from PECs for qPCR analysis.

[5] = test system: hiPSC-derived CMs; assay: Differentiation of ventricular-like CM population with BMS-189453; details: day 30, treated 96 h starting at day 3, vs control
Procedure: as §1
Differentiation of Ventricular-like CM population. Human iPS cells were maintained and differentiated to LPM with Stemolecule™ CHIR99021 for 48 h. BMS-189453 (1-2 μM, Sigma Aldrich, St. Louis, MO) was supplemented together with Stemolecule™ Wnt inhibitor IWP-4 (Stemgent, San Diego, CA) in RPMI-INS for 48 h starting day 3. Then, BMS-189453 treatment was continued after additional 48 h after withdrawal of Stemolecule™ Wnt inhibitor IWP-4 in RPMI-INS until day 9. Culture medium was then switched to RPMI supplemented with insulin containing B27 to further maintain the differentiated ventricular myocytes until use.

[6] = 6 days, RT-PCR vs SB-treated PECs
[7] = 48 h CHIR treatment, day 3, RT-PCR vs hiPSC
[8] = day 3, 48 h CHIR treatment, flow cytometry

In the case of “IGF2: IGF2 protein added to ventricular CMs”, the “cTnT+ EdU+ CMs” value ([1]; IGF2 addition, dose-response) is reported as “significantly increased”.

With “bFGF: bFGF growth factor (PeproTech), 10 ng/ml” the “PECs CD90 positive” value [2] was 95.3±0.7%, the “ACTA2, DDR2 and POSTN expression” value [2, 6] was “significant increases” and the SNAI1 expression [2, 6] was “upregulation”. For the same compound, the “fibroblast markers TCF21 and VIM expression” value [2, 6] was “significant upregulation” and the “PEC phenotype (ZO1, WT1, morphology)” value [2] was “ZO1 disarrangement, cell and nucleus enlargement, and WT1-expression loss”.

In the case of `Cc1c[nH]c(-c2cnc(NCCNc3ccc(C#N)cn3)nc2-c2ccc(Cl)cc2Cl)n1` [CHIR, CHIR99021], the “pluripotency markers (OCT3/4, SOX2, NANOG) expression” value [3, 7] is reported as “significant downregulation”, the “primitive streak, lateral plate mesoderm and cardiac progenitor marker expression” value [3, 7] is reported as “significant upregulation” and the “LPM progenitors expressing KDR” value [3, 8] is reported as 88.0±3.6%. For the same compound, the “LPM progenitors expressing PDGFRA” value [3, 8] was 73.7±4.3%.

With `NC(=O)c1ccc(-c2nc(-c3ccc4c(c3)OCO4)c(-c3ccccn3)[nH]2)cc1` [SB, SB431542] the “PECs CD90 positive” value [2] was 1.1±0.1% and the “PEC phenotype (ZO1, WT1, morphology)” value [2] was “maintain the cuboidal epithelial phenotype with defined ZO1 expression”.

In the case of `C[C@]1(O)C[C@@H](c2nc(-c3ccc4ccc(-c5ccccc5)nc4c3)c3c(N)nccn32)C1` [Linsitinib], the “cTnT+ EdU+ CMs” value ([1]; treated with 1 μM, 3 days, PEC coculture) is reported as 7.0±0.4%.

In the case of TGFβ, the “PECs CD90 positive” value [2] is reported as 28.7±3.5%, the “ACTA2, DDR2 and POSTN expression” value [2, 6] is reported as “significant increases” and the “PEC phenotype (ZO1, WT1, morphology)” value [2] is reported as “ZO1 disarrangement, cell and nucleus enlargement, and WT1-expression loss”.

In the case of `CC1(C)CC=C(c2ccccc2)c2cc(/C=C/c3ccc(C(=O)O)cc3)ccc21` [BMS, BMS189453], the “IGF2 expression in co-cultured PECs” value [4] is reported as “significantly reduced” and the “ventricular genes MYH7 and MYL2 expression” value [5] is reported as “significantly upregulated”.
